The values below come from patent publication US20050203175A1, “Parenteral composition of paracetamol” (priority 2001, published 2005).

The nature of data set [1]: Solubility in water and organic solvents. The format is physicochemical. The source says:
Paracetamol is soluble in Methanol, Ethanol, DMF, Ethylene chlorine, Benzyl ethanol and other organic solvents, but none of them can be used alone or in a mixture, because of their toxicity.

The conditions of data set [2]: cited from earlier work.
In a further data set the test system is liver cytochrome P-450. Conditions: in vivo; cited from earlier work.
The conditions of data set [3]: cited from earlier work. This is another data set of the same source.

As to `CC(=O)Nc1ccc(O)cc1` [Paracetamol], the “solubility in organic solvents” value in data set [1] (Methanol, Ethanol, DMF, Ethylene chlorine, Benzyl ethanol and other organic solvents) is given as “soluble”. In addition, the solubility in water result in data set [1] (water) is “practically insoluble”. In data set [2] (intramuscular, blood level similar to that after oral administration), the “absorption when intramuscularly administered” value is on record as “well absorbed”. Besides, the “loss of the drug observed after oral administration” value in data set [2] (oral administration, does not exist with injectable Paracetamol) is listed as 20%. Moreover, in the data set with liver cytochrome P-450, the “part oxidized by the liver cytochrome P-450 to a toxic intermediate metabolite” value is reported as “approx. 3%”. For the same compound, the “excreted through urines as conjugated derivative of glucouronic acid” value in data set [3] (glucouronic acid conjugate) is reported as 60%. The “excreted through urines as conjugated derivative of sulfuric acid” value in data set [3] (sulfuric acid conjugate) is listed as 35%. The “excreted through urines as conjugated derivatives” value in data set [3] (total of sulfuric and glucouronic acid conjugates) is given as 95%. For the same compound, the excreted unchangeable in data set [3] (unchanged drug) was 2%.
